Assay results published in ChEMBL document CHEMBL4304811, “Development of a Water-Soluble Indolylmaleimide Derivative IM-93 Showing Dual Inhibition of Ferroptosis and NETosis” (ACS Med Chem Lett, 2019).

How the values were obtained:
[1] = target: Ephrin type-A receptor 8 (Homo sapiens) (UniProt P29322); assay: Binding affinity to wild-type human partial length EPHA8 (Q608 to C920 residues) expressed in bacterial expression system assessed as residual binding level at 10 uM by Kinomescan method relative to control
[2] = target: Tyrosine-protein kinase JAK1 (Homo sapiens) (UniProt P23458); assay: Binding affinity to wild-type human partial length JAK1 JH2 pseudokinase domain (R537 to D855 residues) expressed in mammalian expression system assessed as residual binding level at 10 uM by Kinomescan method relative to control
[3] = target: Mitogen-activated protein kinase kinase kinase 6 (Homo sapiens) (UniProt O95382); assay: Binding affinity to wild-type human partial length ASK2 (M278 to R972 residues) expressed in mammalian expression system assessed as residual binding level at 10 uM by Kinomescan method relative to control
Sequence of Mitogen-activated protein kinase kinase kinase 6 (Homo sapiens) (O95382 whole entry, the tested form may be a part): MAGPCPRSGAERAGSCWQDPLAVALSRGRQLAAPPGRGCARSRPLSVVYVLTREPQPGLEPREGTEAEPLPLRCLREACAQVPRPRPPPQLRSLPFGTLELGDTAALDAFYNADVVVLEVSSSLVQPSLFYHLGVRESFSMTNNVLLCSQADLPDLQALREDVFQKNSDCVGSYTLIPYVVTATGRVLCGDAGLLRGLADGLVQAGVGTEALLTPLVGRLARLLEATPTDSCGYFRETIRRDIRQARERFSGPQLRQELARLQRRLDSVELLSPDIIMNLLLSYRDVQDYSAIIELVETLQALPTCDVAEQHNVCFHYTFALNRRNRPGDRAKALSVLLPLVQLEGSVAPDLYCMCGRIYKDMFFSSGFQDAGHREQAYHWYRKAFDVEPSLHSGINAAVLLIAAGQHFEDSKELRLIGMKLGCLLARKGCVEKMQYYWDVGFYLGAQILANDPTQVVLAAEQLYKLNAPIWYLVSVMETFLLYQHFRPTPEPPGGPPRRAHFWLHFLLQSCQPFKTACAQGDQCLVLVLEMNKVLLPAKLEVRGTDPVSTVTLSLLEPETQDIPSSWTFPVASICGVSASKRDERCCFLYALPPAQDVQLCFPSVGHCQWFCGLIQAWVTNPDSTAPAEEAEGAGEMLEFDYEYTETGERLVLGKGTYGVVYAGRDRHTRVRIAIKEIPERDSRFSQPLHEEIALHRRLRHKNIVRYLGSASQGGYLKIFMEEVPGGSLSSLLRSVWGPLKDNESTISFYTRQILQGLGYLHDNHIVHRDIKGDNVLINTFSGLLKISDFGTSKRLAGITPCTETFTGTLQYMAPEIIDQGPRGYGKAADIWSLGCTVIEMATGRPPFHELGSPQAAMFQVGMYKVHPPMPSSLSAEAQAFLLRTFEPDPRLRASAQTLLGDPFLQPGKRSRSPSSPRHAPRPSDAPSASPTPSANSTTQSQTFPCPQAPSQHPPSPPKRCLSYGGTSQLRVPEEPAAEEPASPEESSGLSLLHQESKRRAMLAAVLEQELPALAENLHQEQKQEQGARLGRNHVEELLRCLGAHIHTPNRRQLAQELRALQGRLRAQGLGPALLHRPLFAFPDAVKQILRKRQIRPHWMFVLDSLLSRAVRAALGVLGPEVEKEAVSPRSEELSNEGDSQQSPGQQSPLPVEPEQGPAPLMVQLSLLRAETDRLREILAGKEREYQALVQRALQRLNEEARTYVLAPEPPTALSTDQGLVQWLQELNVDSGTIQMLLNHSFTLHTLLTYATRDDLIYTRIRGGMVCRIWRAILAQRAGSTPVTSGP

[4] = target: Serine/threonine-protein kinase RIO2 (Homo sapiens) (UniProt Q9BVS4); assay: Binding affinity to wild-type human partial length RIOK2 (M1 to D313 residues) expressed in mammalian expression system assessed as residual binding level at 10 uM by Kinomescan method relative to control
[5] = target: Protein kinase C iota type (Homo sapiens) (UniProt P41743); assay: Binding affinity to wild-type human partial length PRKCI (H215 to V587 residues) expressed in mammalian expression system assessed as residual binding level at 10 uM by Kinomescan method relative to control
[6] = target: MAP kinase-activated protein kinase 2 (Homo sapiens) (UniProt P49137); assay: Binding affinity to wild-type human partial length MAPKAPK2 (V48 to D345 residues) expressed in bacterial expression system assessed as residual binding level at 10 uM by Kinomescan method relative to control
[7] = test system: Phosphatidylinositol 4,5-bisphosphate 3-kinase catalytic subunit alpha isoform (Homo sapiens), P42336 [E542K]; assay: Binding affinity to human partial length PIK3CA E542K mutant (R108 to N1068 residues) expressed in mammalian expression system assessed as residual binding level at 10 uM by Kinomescan method relative to control
Sequence of Phosphatidylinositol 4,5-bisphosphate 3-kinase catalytic subunit alpha isoform (Homo sapiens), P42336 [E542K] (P42336 whole entry E542K, the tested form may be a part, canonical isoform): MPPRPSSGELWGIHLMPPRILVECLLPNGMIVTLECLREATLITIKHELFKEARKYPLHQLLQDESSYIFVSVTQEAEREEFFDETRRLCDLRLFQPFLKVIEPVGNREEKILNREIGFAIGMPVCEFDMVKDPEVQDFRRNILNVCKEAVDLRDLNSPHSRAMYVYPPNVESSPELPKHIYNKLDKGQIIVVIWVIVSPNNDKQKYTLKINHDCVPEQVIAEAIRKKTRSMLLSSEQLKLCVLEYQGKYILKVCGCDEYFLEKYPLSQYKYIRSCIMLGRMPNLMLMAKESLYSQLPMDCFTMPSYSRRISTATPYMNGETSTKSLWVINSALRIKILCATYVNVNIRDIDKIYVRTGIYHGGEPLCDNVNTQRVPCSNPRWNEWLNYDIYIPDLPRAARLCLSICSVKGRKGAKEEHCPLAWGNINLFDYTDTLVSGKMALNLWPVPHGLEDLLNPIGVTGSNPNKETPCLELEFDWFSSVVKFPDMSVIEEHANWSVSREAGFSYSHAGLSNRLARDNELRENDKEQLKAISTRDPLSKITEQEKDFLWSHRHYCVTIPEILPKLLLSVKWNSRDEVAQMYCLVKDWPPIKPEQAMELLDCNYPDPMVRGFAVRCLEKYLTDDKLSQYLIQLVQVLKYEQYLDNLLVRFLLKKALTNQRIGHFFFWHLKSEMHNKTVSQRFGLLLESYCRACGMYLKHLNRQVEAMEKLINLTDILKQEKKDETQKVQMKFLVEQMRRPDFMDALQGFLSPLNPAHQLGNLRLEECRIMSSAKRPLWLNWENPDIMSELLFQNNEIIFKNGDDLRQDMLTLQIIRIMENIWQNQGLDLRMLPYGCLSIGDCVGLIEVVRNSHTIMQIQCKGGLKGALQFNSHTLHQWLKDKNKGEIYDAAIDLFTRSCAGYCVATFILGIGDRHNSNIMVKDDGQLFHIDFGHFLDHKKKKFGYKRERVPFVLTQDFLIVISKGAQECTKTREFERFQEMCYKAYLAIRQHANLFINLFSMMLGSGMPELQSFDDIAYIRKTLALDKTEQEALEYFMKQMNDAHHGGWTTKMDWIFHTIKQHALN

[8] = target: Ribosomal protein S6 kinase alpha-2 (Homo sapiens) (UniProt Q15349); assay: Binding affinity to wild-type human partial length C-terminal RSK3 kinase domain 2 (V403 to K700 residues) expressed in bacterial expression system assessed as residual binding level at 10 uM by Kinomescan method relative to control
[9] = target: Serine/threonine-protein kinase PRP4 homolog (Homo sapiens) (UniProt Q13523); assay: Binding affinity to wild-type human partial length PRP4 (D657 to I1007 residues) expressed in bacterial expression system assessed as residual binding level at 10 uM by Kinomescan method relative to control
[10] = target: Serine/threonine-protein kinase 38-like (Homo sapiens) (UniProt Q9Y2H1); assay: Binding affinity to wild-type human partial length NDR2 (N34 to E447 residues) expressed in bacterial expression system assessed as residual binding level at 10 uM by Kinomescan method relative to control
[11] = target: Phosphatidylinositol 4-kinase beta (Homo sapiens) (UniProt Q9UBF8); assay: Binding affinity to wild-type human full length PIK4CB (M1 to M828 residues) expressed in mammalian expression system assessed as residual binding level at 10 uM by Kinomescan method relative to control
Sequence of Phosphatidylinositol 4-kinase beta (Homo sapiens) (Q9UBF8 2-816 limits assumed): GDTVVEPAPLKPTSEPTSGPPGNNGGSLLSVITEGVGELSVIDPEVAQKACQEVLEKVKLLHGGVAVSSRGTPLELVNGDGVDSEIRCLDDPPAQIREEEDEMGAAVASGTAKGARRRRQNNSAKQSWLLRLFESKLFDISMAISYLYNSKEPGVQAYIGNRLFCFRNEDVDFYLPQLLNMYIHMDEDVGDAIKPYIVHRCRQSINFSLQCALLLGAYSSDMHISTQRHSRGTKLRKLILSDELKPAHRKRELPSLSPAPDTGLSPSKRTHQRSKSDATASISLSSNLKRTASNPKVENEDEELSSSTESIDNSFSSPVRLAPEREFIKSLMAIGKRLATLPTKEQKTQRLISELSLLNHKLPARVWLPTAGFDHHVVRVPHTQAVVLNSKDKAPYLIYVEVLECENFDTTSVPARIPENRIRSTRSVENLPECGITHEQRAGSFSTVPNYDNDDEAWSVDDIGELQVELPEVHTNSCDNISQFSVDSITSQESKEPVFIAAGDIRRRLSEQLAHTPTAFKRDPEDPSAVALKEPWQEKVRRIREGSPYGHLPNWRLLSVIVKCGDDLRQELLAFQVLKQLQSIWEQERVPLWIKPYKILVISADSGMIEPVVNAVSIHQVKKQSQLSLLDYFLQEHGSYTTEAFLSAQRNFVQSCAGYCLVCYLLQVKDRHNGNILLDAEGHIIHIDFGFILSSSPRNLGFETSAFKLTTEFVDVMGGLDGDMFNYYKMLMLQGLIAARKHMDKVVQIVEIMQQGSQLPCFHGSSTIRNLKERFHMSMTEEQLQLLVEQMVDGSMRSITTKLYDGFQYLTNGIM

[12] = target: Ephrin type-A receptor 3 (Homo sapiens) (UniProt P29320); assay: Binding affinity to wild-type human partial length EPHA3 (D604 to K889 residues) expressed in bacterial expression system assessed as residual binding level at 10 uM by Kinomescan method relative to control
[13] = target: Insulin receptor-related protein (Homo sapiens) (UniProt P14616); assay: Binding affinity to wild-type human partial length INSRR (R950 to E1278 residues) expressed in bacterial expression system assessed as residual binding level at 10 uM by Kinomescan method relative to control
[14] = target: Activin receptor type-1 (Homo sapiens) (UniProt Q04771); assay: Binding affinity to wild-type human ACVR1 (C188 to C509 residues) expressed in bacterial expression system assessed as residual binding level at 10 uM by Kinomescan method relative to control
[15] = target: Casein kinase I isoform gamma-3 (Homo sapiens) (UniProt Q9Y6M4); assay: Binding affinity to wild-type human full length CSNK1G3 (M1 to K447 residues) expressed in bacterial expression system assessed as residual binding level at 10 uM by Kinomescan method relative to control
[16] = target: Serine/threonine-protein kinase N1 (Homo sapiens) (UniProt Q16512); assay: Binding affinity to wild-type human partial length PKN1 (E598 to C948 residues) expressed in bacterial expression system assessed as residual binding level at 10 uM by Kinomescan method relative to control
[17] = target: Mitogen-activated protein kinase kinase kinase 3 (Homo sapiens) (UniProt Q99759); assay: Binding affinity to wild-type human partial length MAP3K3 (E320 to Y626 residues) expressed in mammalian expression system assessed as residual binding level at 10 uM by Kinomescan method relative to control
Sequence of Mitogen-activated protein kinase kinase kinase 3 (Homo sapiens) (Q99759 whole entry, the tested form may be a part): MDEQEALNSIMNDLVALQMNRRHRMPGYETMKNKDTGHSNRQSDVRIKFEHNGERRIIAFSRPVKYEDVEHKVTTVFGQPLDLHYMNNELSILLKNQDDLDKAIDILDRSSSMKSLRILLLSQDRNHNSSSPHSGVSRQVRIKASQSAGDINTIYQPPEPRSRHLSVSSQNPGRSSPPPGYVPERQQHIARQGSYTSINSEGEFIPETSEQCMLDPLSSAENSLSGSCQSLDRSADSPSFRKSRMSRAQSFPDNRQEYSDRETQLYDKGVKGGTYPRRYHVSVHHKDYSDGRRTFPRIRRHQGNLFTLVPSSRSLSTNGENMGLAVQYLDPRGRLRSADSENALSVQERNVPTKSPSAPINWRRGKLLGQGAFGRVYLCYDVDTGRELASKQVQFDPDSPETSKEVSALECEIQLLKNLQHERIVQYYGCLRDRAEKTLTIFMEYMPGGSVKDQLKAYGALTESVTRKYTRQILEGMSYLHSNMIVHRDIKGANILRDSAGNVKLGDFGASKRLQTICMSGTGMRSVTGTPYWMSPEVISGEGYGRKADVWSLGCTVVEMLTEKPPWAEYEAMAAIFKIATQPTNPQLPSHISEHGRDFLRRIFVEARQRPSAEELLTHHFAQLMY

[18] = target: Serine/threonine-protein kinase NLK (Homo sapiens) (UniProt Q9UBE8); assay: Binding affinity to wild-type human full length NLK (M13 to E527 residues) expressed in bacterial expression system assessed as residual binding level at 10 uM by Kinomescan method relative to control
[19] = test system: Phosphatidylinositol 4,5-bisphosphate 3-kinase catalytic subunit alpha isoform (Homo sapiens), P42336 [H1047L]; assay: Binding affinity to human partial length PIK3CA H1047L mutant (R108 to N1068 residues) expressed in mammalian expression system assessed as residual binding level at 10 uM by Kinomescan method relative to control
[20] = target: Mitogen-activated protein kinase kinase kinase 13 (Homo sapiens) (UniProt O43283); assay: Binding affinity to wild-type human full length LZK (M1 to W966 residues) expressed in mammalian expression system assessed as residual binding level at 10 uM by Kinomescan method relative to control
[21] = target: Serine/threonine-protein kinase VRK2 (Homo sapiens) (UniProt Q86Y07); assay: Binding affinity to wild-type human partial length VRK2 (M1 to T336 residues) expressed in mammalian expression system assessed as residual binding level at 10 uM by Kinomescan method relative to control
[22] = target: Serine/threonine-protein kinase 3 (Homo sapiens) (UniProt Q13188); assay: Binding affinity to wild-type human partial length MST2 (D17 to E318 residues) expressed in bacterial expression system assessed as residual binding level at 10 uM by Kinomescan method relative to control
Sequence of Serine/threonine-protein kinase 3 (Homo sapiens) (Q13188 whole entry, the tested form may be a part): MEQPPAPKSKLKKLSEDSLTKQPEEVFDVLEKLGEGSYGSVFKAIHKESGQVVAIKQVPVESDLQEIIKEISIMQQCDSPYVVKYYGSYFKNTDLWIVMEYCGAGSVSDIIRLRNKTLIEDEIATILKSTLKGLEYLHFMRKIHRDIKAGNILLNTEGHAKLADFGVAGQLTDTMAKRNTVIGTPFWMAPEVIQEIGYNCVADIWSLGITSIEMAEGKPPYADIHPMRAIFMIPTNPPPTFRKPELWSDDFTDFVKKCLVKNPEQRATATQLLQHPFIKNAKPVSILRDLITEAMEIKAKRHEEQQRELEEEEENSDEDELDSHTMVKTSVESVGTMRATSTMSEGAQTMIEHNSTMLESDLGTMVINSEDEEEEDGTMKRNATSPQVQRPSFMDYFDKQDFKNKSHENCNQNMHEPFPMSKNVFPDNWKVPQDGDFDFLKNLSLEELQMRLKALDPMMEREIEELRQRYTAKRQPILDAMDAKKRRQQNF

[23] = target: Serine/threonine-protein kinase RIO1 (Homo sapiens) (UniProt Q9BRS2); assay: Binding affinity to wild-type human full length RIOK1 (M1 to K568 residues) expressed in bacterial expression system assessed as residual binding level at 10 uM by Kinomescan method relative to control
Sequence of Serine/threonine-protein kinase RIO1 (Homo sapiens) (Q9BRS2 whole entry, the tested form may be a part): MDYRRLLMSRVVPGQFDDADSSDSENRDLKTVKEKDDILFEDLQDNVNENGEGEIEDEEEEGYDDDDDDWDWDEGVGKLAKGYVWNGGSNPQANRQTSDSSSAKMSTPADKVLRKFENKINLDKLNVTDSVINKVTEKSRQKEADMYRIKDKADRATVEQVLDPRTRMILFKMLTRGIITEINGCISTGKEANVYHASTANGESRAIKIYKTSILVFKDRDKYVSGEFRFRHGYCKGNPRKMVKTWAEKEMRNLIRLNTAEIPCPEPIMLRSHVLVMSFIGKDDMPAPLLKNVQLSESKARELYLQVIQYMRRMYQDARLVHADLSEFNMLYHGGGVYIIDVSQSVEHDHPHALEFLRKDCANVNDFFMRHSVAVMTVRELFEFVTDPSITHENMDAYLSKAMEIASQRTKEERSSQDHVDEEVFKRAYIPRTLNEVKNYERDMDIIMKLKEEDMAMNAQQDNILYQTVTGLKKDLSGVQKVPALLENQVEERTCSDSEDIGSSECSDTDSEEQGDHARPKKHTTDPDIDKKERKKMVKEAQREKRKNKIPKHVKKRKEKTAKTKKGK

[24] = target: MAP kinase-interacting serine/threonine-protein kinase 2 (Homo sapiens) (UniProt Q9HBH9); assay: Binding affinity to wild-type human partial length MKNK2 (G63 to S388 residues) expressed in mammalian expression system assessed as residual binding level at 10 uM by Kinomescan method relative to control

Q: For CC(C)N1C(=O)C(NCCCN(C)C)=C(c2cn(C)c3ccccc23)C1=O.Cl, which Activity [1] is on record?
A: 89%

Q: And the Activity [2]?
A: 88%

Q: What about the Activity [3] of the same molecule?
A: 98%

Q: And the Activity [4]?
A: 91%

Q: What about the Activity [5] of the same molecule?
A: 88%

Q: And the Activity [6]?
A: 94%

Q: And the Activity [7]?
A: 87%

Q: And the Activity [8]?
A: 100%

Q: What about the Activity [9] of the same molecule?
A: 86%

Q: What about the Activity [10] of the same molecule?
A: 74%

Q: What about the Activity [11] of the same molecule?
A: 85%

Q: And the Activity [12]?
A: 100%

Q: What about the Activity [13] of the same molecule?
A: 95%

Q: What about the Activity [14] of the same molecule?
A: 100%

Q: And the Activity [15]?
A: 96%

Q: What about the Activity [16] of the same molecule?
A: 100%

Q: What about the Activity [17] of the same molecule?
A: 100%

Q: What about the Activity [18] of the same molecule?
A: 94%

Q: And the Activity [19]?
A: 78%

Q: And the Activity [20]?
A: 100%

Q: And the Activity [21]?
A: 95%

Q: And the Activity [22]?
A: 100%

Q: And the Activity [23]?
A: 100%

Q: And the Activity [24]?
A: 87%
